Measured values from patent publication US20210341378A1, “HIGH-CONTENT IMAGING OF MICROFLUIDIC DEVICES” (priority 2019, published 2021).
One block for each compound: values may come before it.

Legend:
[1] = tested on: microfluidic devices seeded with human liver cells; experiment: Albumin secretion (ELISA), human Liver-Chip; format: cell-based
Text: Prior to cell seeding, microfluidic devices, in this case S-I Chips (Emulate, Inc. Boston, Mass., USA), were functionalized using Emulate's proprietary protocols and reagents (ER™), including those described herein. After surface functionalization, both channels of the microfluidic device were coated with species-specific extracellular matrices (ECM). For the human bound microfluidic device, a mixture of collagen type I (Corning, Corning, N.Y., USA) and fibronectin, e.g. bovine, (Gibco) was used; for the rat bound microfluidic devices a mixture of collagen type IV, e.g. human placenta, (Sigma-Aldrich, St. Louis, Mo., USA) and fibronectin (Gibco) was used; for the dog bound microfluidic devices a mixture of collagen I (Corning), collagen type IV (Sigma-Aldrich), and fibronectin (Gibco) was used. […] For the dual-cell culture model (hepatocytes and endothelial cells), the LSECs were seeded at a concentration of 2-4 million cells/mL in the lower vascular channel. […] After cell seeding, the upper channel of the microfluidic device was maintained in William's E Medium (WEM) containing Glutamax (Gibco), ITS+ (Corning), dexamethasone (Sigma-Aldrich), ascorbic acid (Sigma-Aldrich), fetal bovine serum (FBS) (Sigma-Aldrich), and Penicillin/Streptomycin (Sigma-Aldrich). The vascular channel of the microfluidic device was maintained with species-specific endothelial media (Emulate, Inc.). Two days after seeding, the microfluidic devices were connected to the Human Emulation System™ (Emulate, Inc.), as described in part herein, and both of the microfluidic device channels were perfused at 30 μL/hr to provide a continuous supply of fresh media for the duration of the experiments. Albumin secretion from the upper channel was quantified using ELISA kits for human, rat, and dog models effluent samples (human and rat: Abcam; dog: Immunology Consultants Laboratory, Inc., Portland, Oreg., USA) and the assays were performed according to the protocol provided by each vendor.

[2] = tested on: microfluidic devices seeded with human liver cells; experiment: APAP metabolite quantification by LC-MS, human Liver-Chip; format: in vitro ADME; conditions: daily 3 mM for 20 days, quadruple-cell human chip
Text: After APAP exposure to microfluidic devices seeded with human liver cells, effluent metabolite levels were quantified using LC-MS analysis. […] APAP-Glucuronide (APAP-Glu), the primary metabolite of APAP, was not quantified using a standard curve. Rather, the LC-MS peak area of APAP-Glu was reported corresponding to each sample.

[3] = some patient populations; cited from earlier work
[4] = tested on: microfluidic devices seeded with human liver cells; experiment: Lipid accumulation (Nile red / AdipoRed), human Liver-Chip; format: cell-based; conditions: daily 1, 10 and 30 μM for 7 days, quadruple-cell chip
Text: Microfluidic devices seeded with liver cells were stained in the upper channel with 5(6)-Carboxy-2′,7′-dichlorofluorescein diacetate (CDFDA) (ThermoFisher) to visualize bile canaliculi and MRP2 activity, cholyl-lysyl-fluorescein (CLF) (Corning) to visualize bile canaliculi and BSEP activity, Nile red (ThermoFisher) or AdipoRed (Lonza) to visualize lipid droplet accumulation, Tetramethylrhodamine, methyl ester (TMRM) (ThermoFisher) to visualize active mitochondria, and CellROX® (ThermoFisher) to visualize cellular oxidative stress. Each staining solution was prepared in blank medium or compound dosing medium and added to the upper channel, incubated for 15 minutes at 37° C., and washed three times with medium. The stained microfluidic devices were imaged using a specific filter, and were de-blurred with Olympus cellSens software. Using ImageJ-Fiji, the fluorescent channel images were histogram adjusted to remove background, followed by fluorescence quantification using the Integrated Density calculation function.
The stained microfluidic devices were imaged using the TRITC filter, and were de-blurred with Olympus cellSens software. Using ImageJ-Fiji, the fluorescent channel images were histogram adjusted to remove background, followed by fluorescence quantification using the Integrated Density calculation function. N=5 FOVs per microfluidic device were analyzed for conditions: vehicle (0.1% DMSO), FIAU dosing groups, and MTX dosing groups.

stellate cells = experiment: Stellate cell activation (alpha-SMA), human Liver-Chip; format: cell-based; conditions: daily 1, 10 and 30 μM for 7 days, quadruple-cell chip
Description: (§1) Microfluidic devices seeded with liver cells and static sandwich plate cultures were fixed with 4% paraformaldehyde for 15 minutes at room temperature, washed with PBS, and permeabilized (saponin 1% with 10% serum in PBS). Blocking and incubation with the primary antibodies (overnight in PBS containing 1% BSA or PBS containing 10% serum and 1% BSA) was followed by a two-hour incubation with secondary antibodies (Cell Signaling, Danvers, Mass., USA) in the same blocking buffer. Immunostaining was performed with specific primary antibodies (anti-MRP2, anti-stabilin-1, anti-BSEP, anti-α-SMA, anti-CD68; Abcam, Cambridge, Mass., USA) and images were acquired with either an Olympus fluorescence microscope (IX83) or Zeiss confocal microscope (AxiovertZ1 LSM880).
(§2) The number of CD68- or α-SMA-positive cells in the vascular channel in each group was counted in each field of view ([…]) and quantified.
The fluorescent channel (588) was first background subtracted and processed using the median filter of Image J. After processing, the signal was thresholded using adaptive thresholding function of Image J (Otsu method) to extract fluorescent regions and to measure the relative intensity of the fluorescent signal. N=4 to 6 FOVs per microfluidic device from each microfluidic device were analyzed. […]

[5] = tested on: microfluidic devices seeded with human liver cells; experiment: Cytokine release (IL-6, MCP-1, IP-10) from vascular channel, human Liver-Chip; format: cell-based
Description: Cytokines: Release of IL-6, MCP-1, and IP-10 from the vascular channel was quantified using U-PLEX biomarker human assays (Meso Scale Diagnostics, Rockville, Md., USA) and the assays were performed according to the protocol provided by the vendor.

[6] = tested on: microfluidic devices seeded with liver cells (hepatocytes and LSECs); experiment: High-content confocal imaging of Liver-Chips treated with staurosporine; format: cell-based, human; conditions: 10 μM, six hours of exposure
Description: Microfluidic devices were obtained from Emulate Inc. (USA) and are illustrated in FIG. 1A. The channels of the microfluidic devices were coated with a proprietary mixture of extracellular matrix and were incubated overnight at 37° C. Primary human cryopreserved hepatocytes sourced from ThermoFisher, as one example, were seeded in the top channel at a density of 3.5×10^6 cells/mL, and were left to form an attached monolayer at 37° C. in a humidified incubator with a 95%/5% ratio of air to CO2.
Twenty-four hours after seeding, the hepatocyte monolayer was overlaid with Matrigel Matrix sourced from Corning, USA. Primary human cryopreserved liver sinusoidal endothelial cells, also known as LSECs, were seeded on the bottom channel of the microfluidic device at a density of 2 to 4×10^6 cells/mL in endothelial medium, also known as CSC medium or Base LSEC Culture Medium; CSC basal Medium plus Culture-Boost (2%), Cell Systems, and Pen/Strep (1%), Sigma. In some embodiments, endothelial cells are cultured in Complete LSEC Culture Medium, Base LSEC Culture Medium plus 10% FBS. […]
The effects of agents, such as staurosporine on cell phenotype was evaluated. […] The protocol was chosen as it was analogous to how the compound has been evaluated in vivo. […]

Kupffer cells = experiment: Kupffer cell count (CD68-positive cells), human Liver-Chip; format: cell-based; conditions: human quadruple-cell chip
Description: as §1, §2

rats = experiment: Repeat-dose toxicity studies in rats; format: in vivo; conditions: rat study of the cFMS/FLT3 inhibitor
Description: (§3) JNJ-1, prepared in purified water, was administered once daily for 14 days to 5 male and 5 female rats at doses of 5, 25, and 125 mg/kg. In a separate study, JNJ-1, also in purified water, was administered once daily for 4 weeks to 5 male and 5 female dogs at 0 or 40 mg/kg/day, and to 3 males and 3 female dogs at 2 or 10 mg/kg/day. Mortality, clinical observations, body weight, food consumption, clinical pathology, gross necropsy and microscopic examination of selected tissues, and toxicokinetics were evaluated. Rats or dogs were fasted overnight prior to blood collection for measurement of clinical pathology parameters (including AST and ALT) at the end of 14 days (rats) or 4 weeks (dogs) of dosing. Histology slides (hematoxylin and eosin staining and Mason's Trichrome staining) of the liver tissues were prepared and evaluated microscopically. The quantification of JNJ-1 was conducted using a qualified liquid chromatographic-triple quadrupole mass spectrometric (LC-MS/MS) procedure.
Regarding histology procedures, the liver was sampled. Briefly, 5 serial sections were prepared. One was stained with hematoxylin and eosin (H&E) kit. The 4 others were submitted to histochemical and immunohistochemical stains. Collagen was detected with the Van Gieson kit (Merck, Darmstadt, Germany), and reticulin, with the Reticulum kit (Sigma-Aldrich). […]

dogs = experiment: Repeat-dose toxicity studies in dogs; format: in vivo; conditions: dog study of the cFMS/FLT3 inhibitor
Description: as §3, with “Rats or dogs were fasted overnight prior to blood collection for measurement of clinical pathology parameters (including AST and ALT) at the end of 14 days (rats) or 4 weeks (dogs) of dosing.” left out
JNJ-3 (in 20% hydroxypropyl-β-cyclodextrin) was administered once daily for 14 days to 3 male beagle dogs per group at doses of 15 and 65 mg/kg. Mortality, clinical observations, body weight, food consumption, clinical pathology, gross necropsy and microscopic examination of selected tissues, and toxicokinetics were evaluated. […] Histology slides (hematoxylin and eosin staining and Mason's Trichrome staining) of the liver tissues were prepared and evaluated microscopically. […]

[7] = tested on: microfluidic devices seeded with rat liver cells; experiment: Albumin secretion (ELISA), rat Liver-Chip; format: cell-based; conditions: 168 h; dual-cell rat chips, daily administration 1-100 μM for 7 days; read-out: IC50 of decrease in albumin secretion
Text: Prior to cell seeding, microfluidic devices, in this case S-I Chips (Emulate, Inc. Boston, Mass., USA), were functionalized using Emulate's proprietary protocols and reagents (ER™), including those described herein. After surface functionalization, both channels of the microfluidic device were coated with species-specific extracellular matrices (ECM). For the human bound microfluidic device, a mixture of collagen type I (Corning, Corning, N.Y., USA) and fibronectin, e.g. bovine, (Gibco) was used; for the rat bound microfluidic devices a mixture of collagen type IV, e.g. human placenta, (Sigma-Aldrich, St. Louis, Mo., USA) and fibronectin (Gibco) was used; for the dog bound microfluidic devices a mixture of collagen I (Corning), collagen type IV (Sigma-Aldrich), and fibronectin (Gibco) was used. […] For the dual-cell culture model (hepatocytes and endothelial cells), the LSECs were seeded at a concentration of 2-4 million cells/mL in the lower vascular channel. […] Albumin secretion from the upper channel was quantified using ELISA kits for human, rat, and dog models effluent samples (human and rat: Abcam; dog: Immunology Consultants Laboratory, Inc., Portland, Oreg., USA) and the assays were performed according to the protocol provided by each vendor.

[8] = tested on: 3D human spheroid hepatic cultures; conditions: fold higher than the human Liver-Chip IC50; cited from earlier work
[9] = target: T1, bile salt export pump (BSEP) (Homo sapiens, UniProt O95342); experiment: CLF efflux into bile canaliculi (BSEP activity), human Liver-Chip; format: cell-based; conditions: 30 μM, co-treatment with CLF
T1 construct: Primary rat, dog or human hepatocytes were cultured in the upper parenchymal channel; endogenous in cells; host or cells: primary human hepatocytes co-cultured with LSECs in a microfluidic Liver-Chip

BSEP = BSEP protein area and gene expression, human Liver-Chip; format: cell-based; conditions: 30 μM

T1 sequence (O95342 whole entry): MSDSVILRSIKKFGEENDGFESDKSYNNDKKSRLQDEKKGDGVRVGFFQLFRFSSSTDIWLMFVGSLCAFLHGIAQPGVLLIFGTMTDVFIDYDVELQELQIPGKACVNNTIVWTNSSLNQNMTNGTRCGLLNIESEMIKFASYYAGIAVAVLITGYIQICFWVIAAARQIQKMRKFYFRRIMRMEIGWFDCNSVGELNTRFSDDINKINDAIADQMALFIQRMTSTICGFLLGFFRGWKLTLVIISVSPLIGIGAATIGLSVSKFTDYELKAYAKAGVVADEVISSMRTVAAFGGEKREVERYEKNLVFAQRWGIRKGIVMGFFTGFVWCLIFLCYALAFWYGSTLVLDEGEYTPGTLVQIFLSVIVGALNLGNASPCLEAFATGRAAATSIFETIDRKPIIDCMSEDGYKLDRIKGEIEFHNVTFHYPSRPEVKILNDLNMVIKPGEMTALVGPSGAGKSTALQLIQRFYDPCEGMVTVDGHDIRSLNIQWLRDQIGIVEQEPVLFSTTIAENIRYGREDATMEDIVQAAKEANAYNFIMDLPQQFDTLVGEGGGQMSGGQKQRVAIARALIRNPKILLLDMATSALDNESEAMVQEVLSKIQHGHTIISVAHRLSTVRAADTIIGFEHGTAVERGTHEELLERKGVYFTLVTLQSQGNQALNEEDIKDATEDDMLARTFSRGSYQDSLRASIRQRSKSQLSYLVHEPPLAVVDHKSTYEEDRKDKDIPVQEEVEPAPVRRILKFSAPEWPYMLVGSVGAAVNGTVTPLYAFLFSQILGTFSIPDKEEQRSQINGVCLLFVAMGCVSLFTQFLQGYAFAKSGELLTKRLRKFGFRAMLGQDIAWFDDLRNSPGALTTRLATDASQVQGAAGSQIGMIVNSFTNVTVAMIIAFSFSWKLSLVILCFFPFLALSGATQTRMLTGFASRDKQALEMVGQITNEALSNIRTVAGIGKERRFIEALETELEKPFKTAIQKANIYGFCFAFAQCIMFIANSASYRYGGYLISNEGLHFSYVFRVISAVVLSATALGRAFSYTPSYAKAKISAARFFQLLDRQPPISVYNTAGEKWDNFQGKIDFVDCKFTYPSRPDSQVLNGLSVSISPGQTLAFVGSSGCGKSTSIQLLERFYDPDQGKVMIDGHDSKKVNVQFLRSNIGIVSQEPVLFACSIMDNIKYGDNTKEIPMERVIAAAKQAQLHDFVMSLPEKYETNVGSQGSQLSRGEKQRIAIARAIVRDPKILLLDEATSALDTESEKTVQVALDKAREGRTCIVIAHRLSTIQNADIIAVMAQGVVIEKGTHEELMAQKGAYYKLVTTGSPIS

albumin synthesis ([1]; APAP 7 days, quadruple-cell human chip): decreased
APAP glucuronide in parenchymal and vascular channels [2]: significant amounts
Compound: CC(=O)Nc1ccc(O)cc1 [APAP, acetaminophen]

expression of α-SMA (stellate cell activation) (stellate cells): increased expression
albumin secretion ([1]; MTX 1, 10 and 30 μM for 7 days, quadruple-cell chip): no abnormalities
Compound: CN(Cc1cnc2nc(N)nc(N)c2n1)c1ccc(C(=O)N[C@@H](CCC(=O)O)C(=O)O)cc1 [MTX, Methotrexate]
maximal plasma concentrations at which liver injury occurs in humans [3]: ~1 µM
lipid accumulation detected by Nile red [4]: microscopic evidence of lipid accumulation
IP-10 ([5]; MTX treatment, 1 day, vascular channel): increases
cytokines/chemokines including IP-10 ([5]; treated Liver-Chips (discussion)): release

Compound: CN[C@@H]1C[C@H]2O[C@@](C)([C@@H]1OC)n1c3ccccc3c3c4c(c5c6ccccc6n2c5c31)C(=O)NC4 [Staurosporine, staurosporine]
LSECs [6]: complete loss
apoptotic marker (CC3) [6]: marked increases

Compound: CN(C)CC(=O)N1CCC(c2ccc(NC(=O)c3nc(C#N)c[nH]3)c(C3=CCCCC3)c2)CC1 [a JNJ compound]
CD68-positive cells (Kupffer cell depletion) (Kupffer cells): decreased number
microscopic changes in the liver (rats): without any correlative microscopic changes
transaminases (rats): Dose-related elevation
interleukin 6 (IL-6) in the vascular channel ([5]; human quadruple-cell chip): dose-dependent decrease
monocyte chemoattractant protein-1 (MCP-1) in the vascular channel ([5]; human quadruple-cell chip): dose-dependent decrease
microscopic changes in the liver (dogs): without any correlative microscopic changes
transaminases (dogs): Dose-related elevation

Compound: COc1ccccc1Oc1c(NS(=O)(=O)c2ccc(C(C)(C)C)cc2)nc(-c2ncccn2)nc1OCCO [bosentan]
IC50 [7]: > 100 µM
IC50 in 3D human spheroid hepatic cultures relative to human chip [8]: more than 10 fold
CLF in human hepatocytes [9]: intracellular accumulation
BSEP mRNA levels (BSEP): decreases
BSEP protein levels (BSEP): decreases
